We go through 2 compounds from patent US10471020B2, “Nanoparticles with protected interiors, and methods of use thereof” (Universidade de Santiago de Compostela, priority 2016, dated 2019).

Structures are written as SMILES.

The subject of one data set is Caco-2 cells. The experiment in a line: Cytotoxicity study on Caco-2 cells (MTS assay). It is filed as cell-based, Human. To be noted: Caco-2, 2 hour incubation. Here is the method: Culture of Caco-2 cells. Caco-2 cells were grown in DMEM high glucose with L-glutamine supplemented with 10% heat inactivated fetal bovine serum, 1% penicillin (100 U/mL), streptomycin (100 micrograms/mL), and 1% NEAA solution.
Cytotoxicity study on Caco-2 cells. Cytotoxicity was determined using a MTS assay as an indicator of cell viability. Cell viability was assessed after the co-incubation of 10,000 Caco-2 cells/well on a 96-well tissue cultured plate (Costar® Corning®) with the aforementioned formulations in dispersion in culture DMEM medium supplemented with 4 mM of glutamine, 100 U/mL of penicillin, 100 microgram/mL of streptomycin and […] heat inactivated fetal bovine serum. […] The EC50 value for the different formulations were calculated from the dataset by non-linear regression analysis using GraphPad Prism.

For data set [1], the system named is human intestinal tissue (jejunal). The experiment in a line: Toxicity in human intestinal tissue in Ussing chambers (electrophysiology, forskolin response). The conditions noted are these: Ussing chamber. An excerpt: Toxicity and permeability in human intestinal tissue. Jejunal tissue samples were collected from patients undergoing laparoscopic Roux-en-Y gastric bypass. Patients had given full informed consent. The study has been reviewed and approved by a regional ethical review board. Tissue samples were immediately transferred into a vessel containing cold, oxygenated Krebs-Ringer buffer and quickly transported to the laboratory. Arriving, the epithelium was dissected away from sub-epithelial tissues and mounted in horizontal as well as vertically oriented Ussing chambers with 9 mm openings between the two chambers. The basolateral chamber was filled with glucose containing Krebs-Ringer buffer, while the glucose in the apical chamber was substituted with mannitol. This is to avoid SGLT-induced tight junction opening. […] Electrophysiology of the tissue was monitored throughout the experiment to assure continued tissue viability. […] Viable tissue with oxidative metabolism will form cAMP in response to forskolin leading to an opening of CFTR C1 channels, the response was monitored as changes in potential difference and short-circuit current over the epithelium. The permeability of fluorescently labeled nanoparticles was analyzed in a plate reader and the apparent permeability rate constant (Papp) was calculated.

With `CC(C)CCC[C@@H](C)[C@H]1CC[C@H]2[C@@H]3CC=C4C[C@@H](OC(=O)N[C@H](CCCNC(=N)N)C(=O)N[C@H](CCCNC(=N)N)C(=O)N[C@H](CCCNC(=N)N)C(=O)N[C@H](CCCNC(=N)N)C(=O)N[C@H](CCCNC(=N)N)C(=O)N[C@H](CCCNC(=N)N)C(=O)N[C@H](CCCNC(=N)N)C(=O)N[C@H](CCCNC(=N)N)C(N)=O)CC[C@]4(C)[C@H]3CC[C@]12C` [Chol-R8], in the data set with Caco-2 cells, the “cytotoxicity” value is “highest cytotoxicity” and the “cytotoxicity sequence of tested products” value is reported as “Chol-R8>C12-R8>ENCPs>diblock or branched PGA-PEG”.
Consider `CCCCCCCCCCCC(=O)N[C@H](CCCNC(=N)N)C(=O)N[C@H](CCCNC(=N)N)C(=O)N[C@H](CCCNC(=N)N)C(=O)N[C@H](CCCNC(=N)N)C(=O)N[C@H](CCCNC(=N)N)C(=O)N[C@H](CCCNC(=N)N)C(=O)N[C@H](CCCNC(=N)N)C(=O)N[C@H](CCCNC(=N)N)C(N)=O` [Formulation C12-R8], for which, in the data set on Caco-2 cells, the “cytotoxicity sequence of tested products” value is recorded as “Chol-R8>C12-R8>ENCPs>diblock or branched PGA-PEG”. In addition, the forskolin response entry in data set [1] is reported as “no evident change”.
